Data from patent publication US12625150B2, “Treatment of, and differential diagnosis between, ACTH-dependent Cushing's syndrome and ACTH-independent Cushing's syndrome” (Corcept Therapeutics Incorporated, priority 2019, dated 2026).
“And” between values parts separate entries of the source, which are not always exact repeats. Identical values can stand only once.

Experiments:
[1] = system: serum ACTH and cortisol levels; assay: Serum ACTH and cortisol levels and ACTH:cortisol ratio in Cushing's syndrome patients administered mifepristone; type: in vivo, human
[2] = system: serum ACTH and cortisol levels; assay: Serum ACTH and cortisol levels and ACTH:cortisol ratio in Cushing's syndrome patients administered relacorilant; type: in vivo, human; conditions: for change in ACTH:cortisol ratio following treatment: relacorilant 100-400 mg/day, six weeks
Description: Cushing's syndrome (CS) patients were examined and serum levels of ACTH and cortisol were measured in blood samples obtained from the patients. The serum ACTH and cortisol levels determined prior to administration of glucocorticoid receptor antagonist (GRA) therapy were used to calculate baseline ACTH:cortisol ratios (basal ACTH:cortisol ratios). […] The patients then received oral glucocorticoid receptor antagonist (GRA) therapy (either mifepristone or relacorilant, typically daily) for at least six weeks. The serum ACTH and cortisol levels determined after these six weeks of GRA therapy were used to calculate after-GRA ACTH:cortisol ratios. Three patients were treated with relacorilant (100 milligrams (mg) per day, titrated up to 400 mg per day, as tolerated; see Table 1). […] The results of these clinical measurements in Cushing's syndrome patients administered relacorilant (100 milligrams (mg) per day, titrated up to 400 mg per day, as tolerated) are presented in the Table 1: […]

SMILES | Basal ACTH ([1]; individual patients with confirmed pituitary CS (ACTH dependent), serum, prior to mifepristone) | Day 14 Serum Cortisol ([1]; individual patients with confirmed pituitary CS, day 14 of oral mifepristone 300 mg/day titrated up to 900 mg/day) | Basal Serum Cortisol ([1]; individual patients with confirmed pituitary CS, prior to mifepristone) | Day 14 ACTH ([1]; individual patients with confirmed pituitary CS, serum, day 14 of oral mifepristone 300 mg/day titrated up to 900 mg/day) | Week 6 Basal ACTH ([1]; individual patients with confirmed pituitary CS, serum, week 6 of oral mifepristone 300 mg/day titrated up to 900 mg/day) | Week 6 Serum Cortisol ([1]; individual patients with confirmed pituitary CS, week 6 of oral mifepristone 300 mg/day titrated up to 900 mg/day) | change in ACTH:cortisol ratio following treatment ([2]; CS patient with pituitary tumor (ACTH-dependent Cushing's syndrome)) | Week 6 Serum Cortisol ([2]; adrenal CS patients (ACTH-independent), after six weeks of oral relacorilant 100 mg/day titrated up to 400 mg/day) | Baseline Serum Cortisol ([2]; adrenal CS patients (ACTH-independent), prior to relacorilant) | Week 6 Serum Cortisol ([2]; pituitary CS patient (ACTH-dependent), after six weeks of oral relacorilant 100 mg/day titrated up to 400 mg/day) [µg/dL] | Baseline Serum Cortisol ([2]; pituitary CS patient (ACTH-dependent), prior to relacorilant) [µg/dL] | Week 6 ACTH ([2]; pituitary CS patient (ACTH-dependent), serum, after six weeks of oral relacorilant 100 mg/day titrated up to 400 mg/day) [pg/mL] | Baseline ACTH ([2]; pituitary CS patient (ACTH-dependent), serum, prior to relacorilant) [pg/mL] | Post-Treatment Ratio (ACTH:cortisol) ([2]; pituitary CS patient, ACTH in pg/ml divided by cortisol in μg/dL, after six weeks of oral relacorilant 100-400 mg/day) | Baseline Ratio (ACTH:cortisol) ([2]; pituitary CS patient, ACTH in pg/ml divided by cortisol in μg/dL, prior to relacorilant) | change in ACTH:cortisol ratio following treatment ([2]; two CS patients with adrenal tumors (ACTH-independent Cushing's syndrome))
CC#C[C@]1(O)CC[C@H]2[C@@H]3CCC4=CC(=O)CCC4=C3[C@@H](c3ccc(N(C)C)cc3)C[C@@]21C [mifepristone, 11β-(4-dimethylaminophenyl)-17β-hydroxy-17α-(1-propynyl)-estra-4,9-dien-3-one] | 16 pg/mL and 21 pg/mL and 20 pg/mL and 7 pg/mL and 15 pg/mL and 8 pg/mL | 486 nmol/L and 955 nmol/L and 914 nmol/L and 900 nmol/L and 809 nmol/L and 613 nmol/L | 337 nmol/L and 632 nmol/L and 734 nmol/L and 317 nmol/L and 494 nmol/L and 502 nmol/L | 34 pg/ml (2×) and 53 pg/ml and 21 pg/ml and 30 pg/ml and 22 pg/ml | 57 pg/mL and 52 pg/mL and 65 pg/mL and 24 pg/mL and 49 pg/mL and 20 pg/mL | 679 nmol/L and 999 nmol/L and 1151 nmol/L and 955 nmol/L and 731 nmol/L and 654 nmol/L |  |  |  |  |  |  |  |  |  | 
Cn1cc(S(=O)(=O)N2CCC3=Cc4c(cnn4-c4ccc(F)cc4)C[C@]3(C(=O)c3cc(C(F)(F)F)ccn3)C2)cn1 [relacorilant, (R)-(1-(4-fluorophenyl)-6-((1-methyl-1H-pyrazol-4-yl)sulfonyl)-4,4a,5,6,7,8-hexahydro-1H-pyrazolo[3,4-g]isoquinolin-4a-yl)(4-(trifluoromethyl)pyridin-2-yl)methanone] |  |  |  |  |  |  | increased | 14.9 µg/dL and 17.1 µg/dL | 13.6 µg/dL and 16.2 µg/dL | 28.7 | 20.7 | 39.8 | 23.9 | 1.39 | 1.15 | decreased
